# Activity calls are given as the source filed them. Rule as the data show it, for most assays here: actives have a measured Kd and inactives only a lower limit.
# Key:
# [1] = molecular target: Cyclin-dependent kinase 17 (Homo sapiens, UniProt Q00537)
# Ephrin type-A receptor 1 = molecular target: T1, Ephrin type-A receptor 1 (Homo sapiens, UniProt P21709)
# T1 sequence (P21709 whole entry): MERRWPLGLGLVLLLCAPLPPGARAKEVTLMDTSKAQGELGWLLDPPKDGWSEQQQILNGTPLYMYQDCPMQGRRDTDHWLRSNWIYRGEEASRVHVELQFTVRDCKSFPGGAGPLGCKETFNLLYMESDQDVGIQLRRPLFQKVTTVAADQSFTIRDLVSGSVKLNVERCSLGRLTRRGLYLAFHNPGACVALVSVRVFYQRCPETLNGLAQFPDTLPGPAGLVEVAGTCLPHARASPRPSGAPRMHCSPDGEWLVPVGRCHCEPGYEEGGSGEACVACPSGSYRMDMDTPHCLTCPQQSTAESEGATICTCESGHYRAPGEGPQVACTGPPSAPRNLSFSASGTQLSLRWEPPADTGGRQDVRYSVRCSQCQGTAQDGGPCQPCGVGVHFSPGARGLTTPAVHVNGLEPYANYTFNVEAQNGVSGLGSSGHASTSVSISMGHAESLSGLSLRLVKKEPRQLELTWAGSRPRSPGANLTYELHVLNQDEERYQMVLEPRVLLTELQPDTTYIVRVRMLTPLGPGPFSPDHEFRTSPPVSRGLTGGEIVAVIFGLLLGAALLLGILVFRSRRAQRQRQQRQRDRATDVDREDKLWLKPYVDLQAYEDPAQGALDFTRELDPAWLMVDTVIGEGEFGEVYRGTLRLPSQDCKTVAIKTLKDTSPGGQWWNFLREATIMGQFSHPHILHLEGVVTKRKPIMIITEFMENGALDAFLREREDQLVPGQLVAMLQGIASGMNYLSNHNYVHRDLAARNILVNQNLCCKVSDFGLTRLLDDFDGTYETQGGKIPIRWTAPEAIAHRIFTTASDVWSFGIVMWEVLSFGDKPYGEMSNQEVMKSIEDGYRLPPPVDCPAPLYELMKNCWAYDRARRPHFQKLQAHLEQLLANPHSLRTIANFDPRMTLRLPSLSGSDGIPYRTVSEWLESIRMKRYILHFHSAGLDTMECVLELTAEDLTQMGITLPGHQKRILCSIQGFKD
# [2] = molecular target: T2, Receptor-type tyrosine-protein kinase FLT3 (Homo sapiens, UniProt P36888)
# T2 sequence (P36888 whole entry): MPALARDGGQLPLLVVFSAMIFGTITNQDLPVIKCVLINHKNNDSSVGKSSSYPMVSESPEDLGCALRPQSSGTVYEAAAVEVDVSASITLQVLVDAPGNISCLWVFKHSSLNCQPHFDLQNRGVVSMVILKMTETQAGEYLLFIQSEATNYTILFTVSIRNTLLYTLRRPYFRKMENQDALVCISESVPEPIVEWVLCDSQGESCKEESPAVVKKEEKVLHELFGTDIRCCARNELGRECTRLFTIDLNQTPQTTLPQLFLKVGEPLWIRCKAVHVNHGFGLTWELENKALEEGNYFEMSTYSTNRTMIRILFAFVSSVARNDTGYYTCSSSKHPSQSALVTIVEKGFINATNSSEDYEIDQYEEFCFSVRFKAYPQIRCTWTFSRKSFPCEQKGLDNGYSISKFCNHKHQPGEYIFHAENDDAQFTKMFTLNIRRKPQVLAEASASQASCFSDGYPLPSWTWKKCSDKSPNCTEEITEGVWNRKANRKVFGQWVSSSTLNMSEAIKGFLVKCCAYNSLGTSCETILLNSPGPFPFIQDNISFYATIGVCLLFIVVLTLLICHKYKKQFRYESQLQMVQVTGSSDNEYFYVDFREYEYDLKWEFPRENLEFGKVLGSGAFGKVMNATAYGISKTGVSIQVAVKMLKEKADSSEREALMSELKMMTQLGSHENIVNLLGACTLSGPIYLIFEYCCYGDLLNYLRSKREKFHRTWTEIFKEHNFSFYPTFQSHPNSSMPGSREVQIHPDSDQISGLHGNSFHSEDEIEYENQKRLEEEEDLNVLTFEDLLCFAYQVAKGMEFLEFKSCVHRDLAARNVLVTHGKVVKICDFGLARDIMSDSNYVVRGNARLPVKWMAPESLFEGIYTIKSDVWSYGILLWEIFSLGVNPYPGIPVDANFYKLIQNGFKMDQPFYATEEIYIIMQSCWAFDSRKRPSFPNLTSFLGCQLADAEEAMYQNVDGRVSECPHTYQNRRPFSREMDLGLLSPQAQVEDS
# [3] = molecular target: Glycogen synthase kinase-3 beta (Homo sapiens, UniProt P49841)
# [4] = molecular target: T3, MAP/microtubule affinity-regulating kinase 4 (Homo sapiens, UniProt Q96L34)
# T3 sequence (Q96L34 whole entry): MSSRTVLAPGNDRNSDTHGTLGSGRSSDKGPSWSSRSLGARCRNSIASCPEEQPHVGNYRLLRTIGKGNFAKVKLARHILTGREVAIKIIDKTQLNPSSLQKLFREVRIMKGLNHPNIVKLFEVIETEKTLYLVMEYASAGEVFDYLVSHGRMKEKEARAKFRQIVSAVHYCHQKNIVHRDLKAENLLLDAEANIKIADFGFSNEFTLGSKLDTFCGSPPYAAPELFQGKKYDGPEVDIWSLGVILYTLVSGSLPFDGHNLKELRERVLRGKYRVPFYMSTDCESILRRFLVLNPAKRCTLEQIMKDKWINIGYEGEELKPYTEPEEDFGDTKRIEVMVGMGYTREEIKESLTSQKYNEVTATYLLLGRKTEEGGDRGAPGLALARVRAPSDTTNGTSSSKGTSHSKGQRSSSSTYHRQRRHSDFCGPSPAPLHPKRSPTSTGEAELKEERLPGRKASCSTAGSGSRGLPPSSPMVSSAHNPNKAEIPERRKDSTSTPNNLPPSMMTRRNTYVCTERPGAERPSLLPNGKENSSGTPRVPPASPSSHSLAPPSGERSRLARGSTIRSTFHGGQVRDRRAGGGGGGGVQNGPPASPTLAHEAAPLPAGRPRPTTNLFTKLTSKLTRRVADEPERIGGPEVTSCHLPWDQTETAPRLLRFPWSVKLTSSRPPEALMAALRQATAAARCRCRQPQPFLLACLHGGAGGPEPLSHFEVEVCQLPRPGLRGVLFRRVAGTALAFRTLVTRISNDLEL
# [5] = molecular target: Dual specificity protein kinase CLK4 (Homo sapiens, UniProt Q9HAZ1)
# [6] = molecular target: Membrane-associated progesterone receptor component 1 (Homo sapiens, UniProt O00264)
# Also: in the data inactive means no Kd found up to 30 µM.
# Sequence of Glycogen synthase kinase-3 beta (P49841 whole entry): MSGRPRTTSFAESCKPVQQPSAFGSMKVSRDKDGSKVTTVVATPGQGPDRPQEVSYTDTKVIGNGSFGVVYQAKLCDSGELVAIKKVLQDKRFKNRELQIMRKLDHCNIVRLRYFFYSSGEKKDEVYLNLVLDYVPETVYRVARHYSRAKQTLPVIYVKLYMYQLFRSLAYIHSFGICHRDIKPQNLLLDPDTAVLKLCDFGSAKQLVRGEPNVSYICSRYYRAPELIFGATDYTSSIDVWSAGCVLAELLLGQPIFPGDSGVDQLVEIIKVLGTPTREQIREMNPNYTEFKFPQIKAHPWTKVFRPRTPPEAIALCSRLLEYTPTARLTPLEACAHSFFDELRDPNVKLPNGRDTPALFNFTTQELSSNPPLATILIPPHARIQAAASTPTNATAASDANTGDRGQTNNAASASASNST
# Sequence of Membrane-associated progesterone receptor component 1 (O00264 whole entry): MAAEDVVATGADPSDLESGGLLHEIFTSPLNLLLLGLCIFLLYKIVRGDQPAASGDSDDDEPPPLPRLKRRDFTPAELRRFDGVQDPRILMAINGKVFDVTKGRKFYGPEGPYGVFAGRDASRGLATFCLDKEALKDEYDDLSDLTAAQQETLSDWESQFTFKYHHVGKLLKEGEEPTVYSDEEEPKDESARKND
# Sequence of Cyclin-dependent kinase 17 (Q00537 whole entry): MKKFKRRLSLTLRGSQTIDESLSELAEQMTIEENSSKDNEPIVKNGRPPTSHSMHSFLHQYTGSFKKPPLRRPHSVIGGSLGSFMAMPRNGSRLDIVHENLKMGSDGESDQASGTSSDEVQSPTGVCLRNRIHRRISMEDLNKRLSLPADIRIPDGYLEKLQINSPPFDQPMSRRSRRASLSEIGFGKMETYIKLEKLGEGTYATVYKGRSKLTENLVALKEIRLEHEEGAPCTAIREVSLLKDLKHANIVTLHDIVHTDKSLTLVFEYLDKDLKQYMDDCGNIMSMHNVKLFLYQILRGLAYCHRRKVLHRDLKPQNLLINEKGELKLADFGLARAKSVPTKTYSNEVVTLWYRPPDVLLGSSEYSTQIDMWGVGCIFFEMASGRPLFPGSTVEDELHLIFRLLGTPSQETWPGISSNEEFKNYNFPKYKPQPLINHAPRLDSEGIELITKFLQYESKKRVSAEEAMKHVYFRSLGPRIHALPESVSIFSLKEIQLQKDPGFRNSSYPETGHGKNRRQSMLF
# Sequence of Dual specificity protein kinase CLK4 (Q9HAZ1 whole entry): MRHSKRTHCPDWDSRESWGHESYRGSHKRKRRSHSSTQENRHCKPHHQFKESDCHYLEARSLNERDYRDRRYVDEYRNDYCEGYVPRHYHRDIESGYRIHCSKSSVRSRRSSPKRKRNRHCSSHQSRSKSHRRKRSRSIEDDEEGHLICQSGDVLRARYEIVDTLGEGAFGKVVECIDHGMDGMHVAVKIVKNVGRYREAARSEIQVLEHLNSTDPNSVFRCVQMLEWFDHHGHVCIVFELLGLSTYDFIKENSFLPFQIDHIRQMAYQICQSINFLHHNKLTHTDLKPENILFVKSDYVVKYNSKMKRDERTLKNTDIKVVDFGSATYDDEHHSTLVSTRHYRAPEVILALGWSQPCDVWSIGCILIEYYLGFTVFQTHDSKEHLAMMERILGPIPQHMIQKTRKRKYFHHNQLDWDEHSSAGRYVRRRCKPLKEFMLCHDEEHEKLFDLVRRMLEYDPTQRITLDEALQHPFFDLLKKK
SMILES,Kd [1],Kd (Ephrin type-A receptor 1),Kd [2],Kd [3],Kd [4],Kd [5],Kd [6]
O=S(=O)(c1cccc2cnccc12)N1CCCNCC1 [FASUDIL],> 30 µM (inactive),> 30 µM (inactive),–,–,> 30 µM (inactive),–,–
CC(C)CC(=O)Nc1[nH]nc2c1CN(C(=O)C1CCN(C)CC1)C2(C)C [PHA-793887],–,> 30 µM (inactive),> 30 µM (inactive),0.012 µM (active),> 30 µM (inactive),–,> 30 µM (inactive)
CC[C@@](C)(Nc1ccnc(-c2c[nH]c3ncccc23)n1)C(=O)NCC(F)(F)F [DECERNOTINIB],0.139 µM (active),> 30 µM (inactive),> 30 µM (inactive),> 30 µM (inactive),–,–,> 30 µM (inactive)
O=c1[nH]c([C@@H]2CCCN2)nc2c1oc1ccc(Cl)cc12,–,> 30 µM (inactive),> 30 µM (inactive),8.79 µM,> 30 µM (inactive),–,> 30 µM (inactive)
CCc1nc(C(N)=O)c(Nc2ccc(N3CCC(N4CCN(C)CC4)CC3)c(OC)c2)nc1NC1CCOCC1 [GILTERITINIB],> 30 µM (inactive),> 30 µM (inactive),–,> 30 µM (inactive),> 30 µM (inactive),> 30 µM (inactive),> 30 µM (inactive)
CCN1CCN(Cc2ccc(Nc3ncc(F)c(-c4cc(F)c5nc(C)n(C(C)C)c5c4)n3)nc2)CC1 [ABEMACICLIB],–,> 30 µM (inactive),–,–,> 30 µM (inactive),0.013 µM,–
COc1cccc(Nc2ncnn3ccc(CN4CC[C@@H](N)[C@H](O)C4)c23)c1 [BMS-690514],–,> 30 µM (inactive),–,> 30 µM (inactive),> 30 µM (inactive),–,–
NC[C@@](O)(c1ccc(Cl)cc1)c1ccc(-c2cn[nH]c2)cc1 [AT-13148],–,–,> 30 µM (inactive),> 30 µM (inactive),–,–,> 30 µM (inactive)
N#CCNC(=O)c1ccc(-c2ccnc(Nc3ccc(N4CCOCC4)cc3)n2)cc1 [MOMELOTINIB],1.38 µM,–,–,–,–,–,> 30 µM (inactive)

# Continued, values first:
Kd [1],Kd (Ephrin type-A receptor 1),Kd [2],Kd [3],Kd [4],Kd [5],Kd [6],SMILES
> 30 µM (inactive),> 30 µM (inactive),> 30 µM (inactive),> 30 µM (inactive),> 30 µM (inactive),–,–,COc1cc2ncnc3c2cc1OCCCCCN(C)Cc1ccc(Br)cc1N3 [JNJ-26483327]
> 30 µM (inactive),–,> 30 µM (inactive),> 30 µM (inactive),> 30 µM (inactive),–,–,COc1cc2ncnc(Nc3ccc(F)c(Cl)c3)c2cc1NC(=O)/C=C/CN1CCCCC1 [DACOMITINIB ANHYDROUS]
> 30 µM (inactive),–,–,–,–,> 30 µM (inactive),> 30 µM (inactive),O=C(O)c1ccc2c(c1)nc(Nc1cccc(Cl)c1)c1ccncc12 [SILMITASERTIB]
–,–,–,–,> 30 µM (inactive),–,–,CCOc1ccn(-c2ccc(F)cc2)c(=O)c1C(=O)Nc1ccc(Oc2ccnc(N)c2Cl)c(F)c1 [BMS-777607]
–,–,–,–,–,–,> 30 µM (inactive),Cn1cnc2c(F)c(Nc3ccc(Br)cc3Cl)c(C(=O)NOCCO)cc21 [SELUMETINIB]
> 30 µM (inactive),> 30 µM (inactive),> 30 µM (inactive),> 30 µM (inactive),> 30 µM (inactive),–,> 30 µM (inactive),CC(C)(O)CC(=O)NCCn1ccc2ncnc(Nc3ccc(Oc4cccc(C(F)(F)F)c4)c(Cl)c3)c21 [TAK-285]
> 30 µM (inactive),> 30 µM (inactive),0.843 µM (active),> 30 µM (inactive),> 30 µM (inactive),–,> 30 µM (inactive),COc1cc(Nc2ncc(F)c(Nc3ccc4c(n3)N(COP(=O)(O)O)C(=O)C(C)(C)O4)n2)cc(OC)c1OC [FOSTAMATINIB]
–,–,–,–,–,–,> 30 µM (inactive),CC1(C)CNc2cc(NC(=O)c3cccnc3NCc3ccncc3)ccc21 [MOTESANIB]
–,–,–,–,–,–,> 30 µM (inactive),CN(C)C/C=C/C(=O)Nc1cc2c(Nc3ccc(F)c(Cl)c3)ncnc2cc1O[C@H]1CCOC1 [AFATINIB]
> 30 µM (inactive),–,> 30 µM (inactive),> 30 µM (inactive),> 30 µM (inactive),–,–,Cc1cc(-c2cc(OC(=O)c3ccccc3)ccc2Cl)cc2nnc(Nc3ccc(OCCN4CCCC4)cc3)nc12 [TG100-801]

# — ChEMBL document CHEMBL3991601, “The target landscape of clinical kinase drugs” (Science, 2017)
